Data as given in patent US20260124222A1, “ISOTHIAZOLYLCARBOXAMIDE COMPOUNDS AND THEIR USE IN THERAPY” (HOTSPOT THERAPEUTICS, INC., priority 2022, published 2026).

Target: T1, Avi-tagged FL MALT-1 (Homo sapiens, UniProt Q9UDY8)
T1 construct: Avi-tagged FL MALT-1 (Pharmaron, stored at −70° C.); Avi-tag; purchased Pharmaron
T1 sequence (Q9UDY8 1-824): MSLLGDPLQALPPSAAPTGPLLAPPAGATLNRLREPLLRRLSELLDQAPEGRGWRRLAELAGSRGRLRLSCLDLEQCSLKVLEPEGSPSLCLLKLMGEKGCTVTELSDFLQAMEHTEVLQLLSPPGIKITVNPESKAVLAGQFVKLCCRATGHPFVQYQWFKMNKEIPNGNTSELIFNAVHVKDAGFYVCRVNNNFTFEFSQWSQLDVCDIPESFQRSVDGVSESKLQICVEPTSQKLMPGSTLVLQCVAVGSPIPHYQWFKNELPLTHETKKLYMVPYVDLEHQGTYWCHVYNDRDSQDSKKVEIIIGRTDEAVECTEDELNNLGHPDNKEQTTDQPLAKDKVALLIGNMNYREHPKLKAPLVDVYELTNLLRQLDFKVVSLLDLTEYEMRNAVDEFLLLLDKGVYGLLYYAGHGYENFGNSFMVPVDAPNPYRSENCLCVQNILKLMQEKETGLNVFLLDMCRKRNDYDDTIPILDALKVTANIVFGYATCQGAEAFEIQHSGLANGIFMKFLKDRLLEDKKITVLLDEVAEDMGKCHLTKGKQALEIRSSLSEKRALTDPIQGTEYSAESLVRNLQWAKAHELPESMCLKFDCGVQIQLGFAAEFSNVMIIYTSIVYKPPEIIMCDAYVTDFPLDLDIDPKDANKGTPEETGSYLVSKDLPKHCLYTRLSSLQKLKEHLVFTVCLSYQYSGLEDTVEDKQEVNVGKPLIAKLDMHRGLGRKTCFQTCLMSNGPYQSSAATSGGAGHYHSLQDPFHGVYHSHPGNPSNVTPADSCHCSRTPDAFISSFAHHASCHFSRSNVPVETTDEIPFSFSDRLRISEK
Experiment: MALT-1 Fluorogenic Peptide Cleavage Assay (MALT1 inhibition assay)
Assay type: biochemical
Conditions: Ac-LRSR-AMC peptide substrate; 30 min pre-incubation, 90 min reaction at room temperature; fluorescence
Description: Inhibition of MALT1 activity by a small molecule was evaluated using MALT-1 Fluorogenic Peptide Cleavage Assay. The assay utilizes a quenched AMC-labelled peptide that contains the MALT-1 recognition sequence and cleavage site (LRSR). MALT-1 mediated cleavage of the peptide relieves the quenching and leads to an increase in fluorescence at excitation (342 nm) and emission (441 nm).
The following reagents were obtained commercially and used to prepare standard reagent formulations as further described below: N-2-hydroxyethylpiperazine-N-2-ethane sulfonic acid (HEPES) (1 M, pH 7.5, stored at 4° C.), sodium citrate (stored at RT), tris(2-carboxyethyl)phosphine hydrochloride (T-CEP) (500 mM, stored at −20° C.), ethylenediaminetetraacetic acid (EDTA) (500 mM, stored at RT), dimethylsulfoxide (DMSO, stored at RT), 3-[(3-cholamidopropyl)dimethylammonio]-1-propane sulphate (CHAPS) (stored at RT), dimethylsulfoxide (DMSO), DMSO (Fisher Scientific, stored at RT), Avi-tagged FL MALT-1 (Pharmaron, stored at −70° C.), Ac-LRSR-AMC Peptide (SM Biochemicals, stored at −20° C.), and ultrapure water (MILLI-Q®).
The standard reagent formulations used in this assay were prepared and stored as follows. A 1.1 M solution of sodium citrate (161.3 g, 500 mL) was prepared and stored at room temperature. A 10% (w/v) CHAPS solution (2.0 g, 20 mL) was prepared and stored at 4° C. A 500 mM HEPES solution having pH of 6.89 was prepared from 200 mL of a 1 M HEPES solution having a pH of 7.5 using concentrated hydrochloric acid and brought to a final volume of 400 mL with MILLI-Q© H2O. The substrate, 10 mM Ac-LRSR-AMC Peptide, was prepared (10 mg, 1.370 mL DMSO) and stored at −20° C.
Compounds were plated to provide a 2% DMSO final concentration using a ProxiPlate-384 Plus F Black 384-shallow well microplate. The assay-ready plates were equilibrated to room temperature. A reaction buffer (30 mL total volume) was prepared by combining HEPES (pH 6.89, 25 mM, 1.5 mL), sodium citrate (660 mM, 18.0 mL), T-CEP (1 mM, 0.06 mL), EDTA (0.1 mM, 0.06 mL), CHAPS (0.05%, 0.15 mL), DMSO (2%, 0.6 mL), and MILLI-Q® H2O (10.23 mL; 9.63 mL when backfilled to 2% DMSO) followed by thorough mixing.
MALT-1 was thawed and kept on ice. Peptide substrate was thawed on the bench under ambient conditions. A MALT-1 enzyme working stock was prepared from Avi-tagged FL MALT-1 (40 nM in a prepared reagent volume of […]) and the reaction buffer (13.0 mL). MALT1 working stock (5 μL) was added to each well of the microplate. MALT-1 was pre-incubated with compounds for 30 minutes at room temperature.
Two substrate working stocks (Km and 10×Km) were prepared. The 1×Km substrate was prepared from Ac-LRSR-AMC Peptide (50 μM in a prepared reagent volume of […]) and the reaction buffer (6.965 mL). The 10×Km substrate was prepared from Ac-LRSR-AMC Peptide ([…] in a prepared reagent volume of 196.0 μL) and the reaction buffer (6.804 mL). The reaction was initiated by the addition of substrate working stock (5 μL, 50 μM) to Km plates and the addition of substrate working stock (5 μL 280 μM) to 10×Km plates. The plates were covered and incubated on the bench at room temperature for 90 minutes.
Fluorescence intensity was determined using a CLARIOstar microplate reader (BMG LABTECH) using the optimised AMC mode. Before taking readings, a 70% gain was applied on the neutral control well. Compound data were normalised to % Inhibition and used to plot sigmoidal concentration response curves to yield various parameters including IC50.

IC50 [µM] | Compound
≤ 0.4 | Cc1c(-c2ccccc2)nsc1C(=O)Nc1cnc(-n2nccn2)c(Cl)c1 [I-3, N-(5-CHLORO-6-(2H-1,2,3-TRIAZOL-2-YL)PYRIDIN-3-YL)-4-METHYL-3-PHENYLISOTHIAZOLE-5-CARBOXAMIDE]
0.4 to 1 | N#Cc1c(-c2ccccc2)nsc1C(=O)Nc1cnc(-n2nccn2)c(Cl)c1 [I-4, N-(5-CHLORO-6-(2H-1,2,3-TRIAZOL-2-YL)PYRIDIN-3-YL)-4-CYANO-3-PHENYLISOTHIAZOLE-5-CARBOXAMIDE]
≤ 0.4 | CC(C)c1c(-c2ccccc2)nsc1C(=O)Nc1cnc(-n2nccn2)c(Cl)c1 [I-5, N-(5-CHLORO-6-(2H-1,2,3-TRIAZOL-2-YL) PYRIDIN-3-YL)-4-ISOPROPYL-3-PHENYLISOTHIAZOLE-5-CARBOXAMIDE]
≤ 0.4 | O=C(Nc1cnc(-n2nccn2)c(Cl)c1)c1snc(-c2ccccc2)c1C1CC1 [I-6, N-(5-CHLORO-6-(2H-1,2,3-TRIAZOL-2-YL) PYRIDIN-3-YL)-4-CYCLOPROPYL-3-PHENYLISOTHIAZOLE-5-CARBOXAMIDE]
≤ 0.4 | N#Cc1cc(NC(=O)c2snc(-c3ccccc3)c2C(F)(F)F)cnc1-n1nccn1 [I-8, N-(5-CYANO-6-(2H-1,2,3-TRIAZOL-2-YL)PYRIDIN-3-YL)-3-PHENYL-4-(TRIFLUOROMETHYL)ISOTHIAZOLE-5-CARBOXAMIDE]
≤ 0.4 | C=Cc1c(-c2ccccc2)nsc1C(=O)Nc1cnc(-n2nccn2)c(Cl)c1 [I-10, N-(5-CHLORO-6-(2H-1,2,3-TRIAZOL-2-YL) PYRIDIN-3-YL)-4-VINYL-3-PHENYLISOTHIAZOLE-5-CARBOXAMIDE]
≤ 0.4 | Cc1cc(NC(=O)c2snc(-c3ccccc3)c2C2CC2)cnc1-n1nccn1 [I-12, 4-CYCLOPROPYL-N-(5-METHYL-6-(2H-1,2,3-TRIAZOL-2-YL)PYRIDIN-3-YL)-3-PHENYLISOTHIAZOLE-5-CARBOXAMIDE]
≤ 0.4 | O=C(Nc1cnc(-n2nccn2)c(C(F)(F)F)c1)c1snc(-c2ccccc2)c1C1CC1 [I-14, 4-CYCLOPROPYL-N-(5-(TRIFLUOROMETHYL)-6-(2H-1,2,3-TRIAZOL-2-YL)PYRIDIN-3-YL)-3-PHENYLISOTHIAZOLE-5-CARBOXAMIDE]
≤ 0.4 | O=C(Nc1ccnc(C(F)(F)F)c1)c1snc(-c2ccccc2)c1C(F)(F)F [I-15, 3-PHENYL-4-(TRIFLUOROMETHYL)-N-(2-(TRIFLUOROMETHYL)PYRIDIN-4-YL)ISOTHIAZOLE-5-CARBOXAMIDE]

Second part, the compound before the results:

Compound | IC50 [µM]
O=C(Nc1cnc(-n2nccn2)c(Cl)c1)c1snc(-c2ccccc2)c1I [I-1, N-(5-CHLORO-6-(2H-1,2,3-TRIAZOL-2-YL)PYRIDIN-3-YL)-4-IODO-3-PHENYLISOTHIAZOLE-5-CARBOXAMIDE] | ≤ 0.4
O=C(Nc1cnc(-n2nccn2)c(Cl)c1)c1cc(-c2ccccc2)ns1 [I-2, N-(5-CHLORO-6-(2H-1,2,3-TRIAZOL-2-YL)PYRIDIN-3-YL)-3-PHENYLISOTHIAZOLE-5-CARBOXAMIDE] | 1 to 2.5
O=C(Nc1cnc(-n2nccn2)c(Cl)c1)c1snc(-c2ccccc2)c1C(F)(F)F [I-7, N-(5-CHLORO-6-(2H-1,2,3-TRIAZOL-2-YL) PYRIDIN-3-YL)-3-PHENYL-4-(TRIFLUOROMETHYL)ISOTHIAZOLE-5-CARBOXAMIDE] | ≤ 0.4
N#Cc1cc(NC(=O)c2snc(-c3ccccc3)c2C2CC2)cnc1-n1nccn1 [I-9, N-(5-CYANO-6-(2H-1,2,3-TRIAZOL-2-YL) PYRIDIN-3-YL)-4-CYCLOPROPYL-3-PHENYLISOTHIAZOLE-5-CARBOXAMIDE] | ≤ 0.4
CCc1c(-c2ccccc2)nsc1C(=O)Nc1cnc(-n2nccn2)c(Cl)c1 [I-11, N-(5-CHLORO-6-(2H-1,2,3-TRIAZOL-2-YL) PYRIDIN-3-YL)-4-ETHYL-3-PHENYLISOTHIAZOLE-5-CARBOXAMIDE] | ≤ 0.4
O=C(Nc1cnc(-n2nccn2)c(C(F)F)c1)c1snc(-c2ccccc2)c1C1CC1 [I-13, 4-CYCLOPROPYL-N-(5-(DIFLUOROMETHYL)-6-(2H-1,2,3-TRIAZOL-2-YL)PYRIDIN-3-YL)-3-PHENYLISOTHIAZOLE-5-CARBOXAMIDE] | ≤ 0.4
